Data taken from ChEMBL document CHEMBL3132769, “Fragment growing to retain or alter the selectivity of anchored kinase hinge-binding fragments” (Medchemcomm, 2014).

Columns and labels:
[1] = target: T1, Serine/threonine-protein kinase Sgk1 (Homo sapiens) (UniProt O00141); test: Inhibition of human truncated SGK1 expressed in baculovirus assessed as substrate phosphorylation using fluorescence-labelled peptides as substrate at 95 uM after 90 mins by microfluidic peptide phosphorylation assay
T1 sequence (whole entry): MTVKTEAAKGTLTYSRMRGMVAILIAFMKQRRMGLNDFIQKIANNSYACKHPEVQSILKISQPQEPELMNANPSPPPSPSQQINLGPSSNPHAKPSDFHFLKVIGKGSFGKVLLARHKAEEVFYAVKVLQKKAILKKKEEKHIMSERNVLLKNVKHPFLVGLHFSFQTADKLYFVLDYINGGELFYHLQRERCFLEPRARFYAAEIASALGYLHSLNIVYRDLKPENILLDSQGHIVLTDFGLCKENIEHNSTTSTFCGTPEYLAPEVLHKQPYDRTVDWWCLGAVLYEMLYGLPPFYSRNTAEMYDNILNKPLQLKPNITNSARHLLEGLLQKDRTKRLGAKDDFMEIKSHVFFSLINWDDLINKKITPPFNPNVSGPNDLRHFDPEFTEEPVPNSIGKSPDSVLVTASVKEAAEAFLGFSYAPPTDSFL

[2] = target: Casein kinase I isoform delta (Homo sapiens) (UniProt P48730); test: Inhibition of human CK1D catalytic domain expressed in Escherichia coli cell assessed as substrate phosphorylation using fluorescence-labelled peptides as substrate at 95 uM after 90 mins by microfluidic peptide phosphorylation assay
Casein kinase I isoform delta (Homo sapiens), sequence (P48730 whole entry, looked up, the tested form may be a part, canonical isoform): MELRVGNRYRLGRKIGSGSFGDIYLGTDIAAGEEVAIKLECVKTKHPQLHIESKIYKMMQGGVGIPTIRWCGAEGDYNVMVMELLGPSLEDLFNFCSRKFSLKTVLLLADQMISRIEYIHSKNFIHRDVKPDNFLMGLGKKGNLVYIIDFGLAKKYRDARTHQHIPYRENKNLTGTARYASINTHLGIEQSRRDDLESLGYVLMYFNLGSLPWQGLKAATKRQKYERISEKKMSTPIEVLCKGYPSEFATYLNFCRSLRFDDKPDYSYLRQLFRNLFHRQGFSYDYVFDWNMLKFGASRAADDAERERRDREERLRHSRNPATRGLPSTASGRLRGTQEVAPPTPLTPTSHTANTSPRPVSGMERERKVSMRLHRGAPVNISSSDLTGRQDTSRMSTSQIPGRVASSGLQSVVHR

[3] = target: RAF proto-oncogene serine/threonine-protein kinase (Homo sapiens) (UniProt P04049); test: Inhibition of human truncated c-Raf expressed in baculovirus assessed as substrate phosphorylation using fluorescence-labelled peptides as substrate at 95 uM after 90 mins by microfluidic peptide phosphorylation assay
RAF proto-oncogene serine/threonine-protein kinase (Homo sapiens), sequence (P04049 whole entry, the tested form may be a part): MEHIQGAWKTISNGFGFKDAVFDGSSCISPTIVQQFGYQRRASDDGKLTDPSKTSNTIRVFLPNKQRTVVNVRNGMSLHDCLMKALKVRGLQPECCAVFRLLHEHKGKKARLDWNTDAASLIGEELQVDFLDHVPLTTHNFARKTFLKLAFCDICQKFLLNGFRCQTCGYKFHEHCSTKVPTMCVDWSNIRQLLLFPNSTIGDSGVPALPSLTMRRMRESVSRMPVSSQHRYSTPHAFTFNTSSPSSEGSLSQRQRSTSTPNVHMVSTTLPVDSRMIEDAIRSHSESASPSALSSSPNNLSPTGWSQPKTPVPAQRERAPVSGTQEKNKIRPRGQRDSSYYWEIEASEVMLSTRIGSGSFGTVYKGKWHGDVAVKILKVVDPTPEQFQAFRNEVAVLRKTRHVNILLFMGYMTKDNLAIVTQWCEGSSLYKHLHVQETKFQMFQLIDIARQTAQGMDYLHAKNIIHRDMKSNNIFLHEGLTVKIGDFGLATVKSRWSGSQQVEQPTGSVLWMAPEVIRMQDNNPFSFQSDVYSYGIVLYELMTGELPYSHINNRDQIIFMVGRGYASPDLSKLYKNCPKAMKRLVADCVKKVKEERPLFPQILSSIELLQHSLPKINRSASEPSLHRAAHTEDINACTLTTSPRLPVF

[4] = tested on: Fibroblast growth factor receptor 2 (Homo sapiens), P21802 [N549H]; test: Inhibition of human FGFR2 N549H mutant catalytic domain expressed in baculovirus assessed as substrate phosphorylation using fluorescence-labelled peptides as substrate at 95 uM after 90 mins by microfluidic peptide phosphorylation assay
Fibroblast growth factor receptor 2 (Homo sapiens), P21802 [N549H], sequence (P21802 whole entry N549H, the tested form may be a part): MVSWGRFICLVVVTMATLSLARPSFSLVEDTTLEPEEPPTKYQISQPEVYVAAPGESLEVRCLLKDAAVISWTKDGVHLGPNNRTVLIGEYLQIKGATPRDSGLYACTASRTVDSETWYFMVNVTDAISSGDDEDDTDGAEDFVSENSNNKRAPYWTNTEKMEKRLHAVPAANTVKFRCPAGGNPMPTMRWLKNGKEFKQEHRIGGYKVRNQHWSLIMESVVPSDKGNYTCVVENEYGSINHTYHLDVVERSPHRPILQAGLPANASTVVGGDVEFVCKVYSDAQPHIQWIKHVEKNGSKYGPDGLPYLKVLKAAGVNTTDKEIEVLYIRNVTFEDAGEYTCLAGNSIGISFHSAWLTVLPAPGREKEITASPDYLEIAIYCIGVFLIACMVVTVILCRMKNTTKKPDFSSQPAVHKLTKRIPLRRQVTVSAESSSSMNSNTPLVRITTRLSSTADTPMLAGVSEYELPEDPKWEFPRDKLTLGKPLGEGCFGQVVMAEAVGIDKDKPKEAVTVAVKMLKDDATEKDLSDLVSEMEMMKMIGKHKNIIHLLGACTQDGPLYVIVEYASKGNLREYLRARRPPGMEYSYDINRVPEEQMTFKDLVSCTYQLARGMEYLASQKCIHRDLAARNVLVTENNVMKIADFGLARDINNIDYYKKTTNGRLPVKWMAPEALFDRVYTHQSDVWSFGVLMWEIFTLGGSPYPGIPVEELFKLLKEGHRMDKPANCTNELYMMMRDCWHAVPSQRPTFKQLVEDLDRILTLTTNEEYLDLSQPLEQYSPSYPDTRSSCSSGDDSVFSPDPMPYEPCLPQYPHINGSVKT

[5] = target: Protein kinase C gamma type (Homo sapiens) (UniProt P05129); test: Inhibition of human truncated PKC gamma expressed in baculovirus assessed as substrate phosphorylation using fluorescence-labelled peptides as substrate at 0.2 uM after 90 mins by microfluidic peptide phosphorylation assay
[6] = target: T2, Aurora kinase C (Homo sapiens) (UniProt Q9UQB9); test: Inhibition of human full length AurC expressed in baculovirus assessed as substrate phosphorylation using fluorescence-labelled peptides as substrate at 8 uM after 90 mins by microfluidic peptide phosphorylation assay
T2 sequence (whole entry): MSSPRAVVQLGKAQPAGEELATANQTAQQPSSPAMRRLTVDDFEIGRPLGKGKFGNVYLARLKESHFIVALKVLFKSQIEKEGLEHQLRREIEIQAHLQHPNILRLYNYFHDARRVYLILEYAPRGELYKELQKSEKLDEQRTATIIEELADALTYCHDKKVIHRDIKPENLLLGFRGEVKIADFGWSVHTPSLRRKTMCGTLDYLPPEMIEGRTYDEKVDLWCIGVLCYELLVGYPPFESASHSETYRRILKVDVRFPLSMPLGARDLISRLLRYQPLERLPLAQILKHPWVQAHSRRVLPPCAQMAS

[7] = target: T3, Interleukin-1 receptor-associated kinase 4 (Homo sapiens) (UniProt Q9NWZ3); test: Inhibition of human IRAK4 catalytic domain expressed in baculovirus assessed as substrate phosphorylation using fluorescence-labelled peptides as substrate at 0.06 uM after 90 mins by microfluidic peptide phosphorylation assay
T3 sequence (whole entry): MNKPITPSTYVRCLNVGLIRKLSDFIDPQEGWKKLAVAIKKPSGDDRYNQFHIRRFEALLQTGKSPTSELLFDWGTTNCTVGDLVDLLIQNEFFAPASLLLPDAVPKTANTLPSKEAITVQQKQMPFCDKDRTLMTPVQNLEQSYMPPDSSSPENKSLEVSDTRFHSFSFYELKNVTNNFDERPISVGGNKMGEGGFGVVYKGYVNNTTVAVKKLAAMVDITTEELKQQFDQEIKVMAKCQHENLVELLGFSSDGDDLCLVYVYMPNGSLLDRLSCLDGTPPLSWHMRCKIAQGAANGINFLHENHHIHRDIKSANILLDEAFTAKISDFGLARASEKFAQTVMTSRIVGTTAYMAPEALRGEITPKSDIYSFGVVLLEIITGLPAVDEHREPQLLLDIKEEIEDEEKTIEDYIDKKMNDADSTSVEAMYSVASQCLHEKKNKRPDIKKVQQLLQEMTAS

[8] = target: T4, Serine/threonine-protein kinase Nek2 (Homo sapiens) (UniProt P51955); test: Inhibition of human full length NEK2 expressed in baculovirus assessed as substrate phosphorylation using fluorescence-labelled peptides as substrate at 0.06 uM after 90 mins by microfluidic peptide phosphorylation assay
T4 sequence (whole entry): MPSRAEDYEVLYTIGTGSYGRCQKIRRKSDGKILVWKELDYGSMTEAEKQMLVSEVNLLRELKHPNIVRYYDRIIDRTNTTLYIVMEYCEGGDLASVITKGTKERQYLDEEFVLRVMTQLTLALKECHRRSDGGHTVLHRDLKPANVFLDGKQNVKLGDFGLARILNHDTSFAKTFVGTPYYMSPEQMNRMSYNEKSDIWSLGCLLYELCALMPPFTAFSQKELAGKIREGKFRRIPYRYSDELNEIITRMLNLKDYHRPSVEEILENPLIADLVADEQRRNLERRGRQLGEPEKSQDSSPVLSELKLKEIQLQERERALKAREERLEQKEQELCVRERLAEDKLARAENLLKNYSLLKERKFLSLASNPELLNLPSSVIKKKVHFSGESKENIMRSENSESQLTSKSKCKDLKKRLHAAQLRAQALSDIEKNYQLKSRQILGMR

[9] = target: Ribosomal protein S6 kinase alpha-3 (Homo sapiens) (UniProt P51812); test: Inhibition of human full length RSK2 expressed in baculovirus assessed as substrate phosphorylation using fluorescence-labelled peptides as substrate at 0.1 uM after 90 mins by microfluidic peptide phosphorylation assay
[10] = target: Protein kinase C eta type (Homo sapiens) (UniProt P24723); settings: 0.1 uM
Protein kinase C eta type (Homo sapiens), sequence (P24723 whole entry): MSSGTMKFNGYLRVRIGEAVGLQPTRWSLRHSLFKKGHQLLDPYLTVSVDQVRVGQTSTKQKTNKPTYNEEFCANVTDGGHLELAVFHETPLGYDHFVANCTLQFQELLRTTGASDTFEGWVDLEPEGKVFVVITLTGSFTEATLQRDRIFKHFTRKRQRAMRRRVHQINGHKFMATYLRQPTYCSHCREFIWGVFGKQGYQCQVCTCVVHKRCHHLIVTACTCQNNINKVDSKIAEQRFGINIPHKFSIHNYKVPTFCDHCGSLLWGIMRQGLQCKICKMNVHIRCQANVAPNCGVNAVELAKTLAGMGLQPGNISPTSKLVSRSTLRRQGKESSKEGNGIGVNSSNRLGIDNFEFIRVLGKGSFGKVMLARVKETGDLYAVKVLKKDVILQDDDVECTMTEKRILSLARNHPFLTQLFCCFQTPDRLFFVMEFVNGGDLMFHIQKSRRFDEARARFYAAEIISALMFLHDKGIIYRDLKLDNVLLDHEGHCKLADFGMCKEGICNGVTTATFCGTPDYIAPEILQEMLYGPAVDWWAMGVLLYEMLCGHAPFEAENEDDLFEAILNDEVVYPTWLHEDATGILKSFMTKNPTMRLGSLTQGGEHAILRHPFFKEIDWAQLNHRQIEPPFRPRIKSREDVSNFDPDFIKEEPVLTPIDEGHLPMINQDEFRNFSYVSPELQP
Description: Inhibition of human truncated PKC eta expressed in baculovirus assessed as substrate phosphorylation using fluorescence-labelled peptides as substrate at 0.1 uM after 90 mins by microfluidic peptide phosphorylation assay

[11] = target: Proto-oncogene tyrosine-protein kinase Src (Homo sapiens) (UniProt P12931); test: Inhibition of human full length SRC expressed in baculovirus assessed as substrate phosphorylation using fluorescence-labelled peptides as substrate at 420 uM after 90 mins by microfluidic peptide phosphorylation assay
Proto-oncogene tyrosine-protein kinase Src (Homo sapiens), sequence (P12931 2-536 limits assumed): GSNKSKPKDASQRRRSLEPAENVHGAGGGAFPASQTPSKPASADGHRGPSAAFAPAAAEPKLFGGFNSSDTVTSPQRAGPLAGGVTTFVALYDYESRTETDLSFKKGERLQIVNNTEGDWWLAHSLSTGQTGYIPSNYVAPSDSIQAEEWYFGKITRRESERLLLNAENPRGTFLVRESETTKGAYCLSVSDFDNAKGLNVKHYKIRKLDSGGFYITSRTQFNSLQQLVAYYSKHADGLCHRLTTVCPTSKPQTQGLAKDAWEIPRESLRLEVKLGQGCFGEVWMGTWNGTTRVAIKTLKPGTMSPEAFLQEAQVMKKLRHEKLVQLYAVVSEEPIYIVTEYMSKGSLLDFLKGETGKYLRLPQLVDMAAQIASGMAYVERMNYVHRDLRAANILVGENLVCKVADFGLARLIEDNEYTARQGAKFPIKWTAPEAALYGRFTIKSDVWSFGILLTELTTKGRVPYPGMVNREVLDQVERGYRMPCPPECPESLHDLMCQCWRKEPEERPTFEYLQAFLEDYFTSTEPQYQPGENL

[12] = target: Ribosomal protein S6 kinase alpha-2 (Homo sapiens) (UniProt Q15349); test: Inhibition of human full length RSK3 expressed in baculovirus assessed as substrate phosphorylation using fluorescence-labelled peptides as substrate at 70 uM after 90 mins by microfluidic peptide phosphorylation assay
Ribosomal protein S6 kinase alpha-2 (Homo sapiens), sequence (Q15349 whole entry, the tested form may be a part): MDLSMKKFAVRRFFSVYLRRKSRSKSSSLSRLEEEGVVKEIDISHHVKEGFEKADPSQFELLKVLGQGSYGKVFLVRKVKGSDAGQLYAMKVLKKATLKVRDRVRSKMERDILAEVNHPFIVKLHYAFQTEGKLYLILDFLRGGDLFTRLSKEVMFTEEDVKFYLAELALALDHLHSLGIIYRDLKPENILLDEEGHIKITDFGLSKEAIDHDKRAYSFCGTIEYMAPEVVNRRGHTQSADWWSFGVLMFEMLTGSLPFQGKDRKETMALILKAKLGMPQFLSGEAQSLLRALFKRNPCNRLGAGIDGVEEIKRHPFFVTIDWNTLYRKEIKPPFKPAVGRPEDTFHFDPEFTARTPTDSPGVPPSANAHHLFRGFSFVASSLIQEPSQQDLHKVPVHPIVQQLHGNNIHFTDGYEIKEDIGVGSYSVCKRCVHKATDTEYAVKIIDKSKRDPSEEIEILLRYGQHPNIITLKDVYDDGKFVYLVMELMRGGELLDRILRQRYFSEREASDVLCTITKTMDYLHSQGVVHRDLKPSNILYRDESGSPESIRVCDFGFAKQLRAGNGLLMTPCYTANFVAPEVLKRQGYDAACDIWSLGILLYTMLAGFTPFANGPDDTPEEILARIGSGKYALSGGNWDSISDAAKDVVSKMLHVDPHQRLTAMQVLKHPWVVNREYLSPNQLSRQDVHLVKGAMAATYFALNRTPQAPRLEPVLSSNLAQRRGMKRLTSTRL

[13] = target: Rho-associated protein kinase 2 (Homo sapiens) (UniProt O75116); test: Inhibition of human ROCK2 catalytic domain expressed in baculovirus assessed as substrate phosphorylation using fluorescence-labelled peptides as substrate at 70 uM after 90 mins by microfluidic peptide phosphorylation assay

**Q.** What does the source list for `NCCc1ccc(-c2ncnc3[nH]cnc23)cc1`?
**A.** inhibition [1]: 52.5%; inhibition [2]: 77.5%; inhibition [3]: 39.5%; inhibition [4]: 40%

**Q.** With `Clc1ccc(C2(c3ccc(-c4ncnc5[nH]cnc45)cc3)CCNCC2)cc1` as the compound, how does the inhibition [5] read?
**A.** 80%

**Q.** How did the inhibition [6] turn out when `NCC1CCN(c2ncnc3[nH]ccc23)CC1` was run?
**A.** 34%

**Q.** How did the inhibition [7] turn out when `NC1(Cc2ccc(Cl)cc2)CCN(c2ncnc3[nH]ccc23)CC1` was run?
**A.** 0%

**Q.** What about the inhibition [8] of the same compound?
**A.** 0%

**Q.** What does the source list for `C[C@H](CN(C)C)Oc1nc(Nc2cc3cccc(Cl)c3cn2)cnc1C#N`?
**A.** inhibition [9]: 59.5%; inhibition [10]: 0%

**Q.** `c1nc(N2CCOCC2)c2nc[nH]c2n1` was tested. Which inhibition [11] did it give?
**A.** 62.5%

**Q.** With `CNCc1ccc(-c2ncnc3[nH]cnc23)cc1` as the compound, how does the inhibition [12] read?
**A.** 81%

**Q.** And the inhibition [13]?
**A.** 88.5%
